Measured values taken from patent US7947257B2 (Archimedes Development Limited, priority 2003, dated 2011).

Assay: Pharmacokinetic performance of intranasal granisetron formulations in sheep (plasma granisetron by HPLC)
Format: in vivo
Settings: in words
Description: A group of five female sheep was used, each weighing around 35 kg. The formulations were administered to a randomized cross-over design. […] This dose was provided by administering 0.4 ml of each formulation via a spray device with the dose volume being divided equally between both nostrils.
Blood samples were collected over a 360 minute period following dosing and plasma separated. […] Pharmacokinetic parameters were calculated from the plasma data.

absorption by the intranasal route: well absorbed
Structure (SMILES): CN1C2CCCC1CC(NC(=O)c1nn(C)c3ccccc13)C2 (stereo not shown) [Granisetron, 1-methyl-N-(9-methyl-9-azabicyclo[3.3.1]non-3-yl)-1H-indazole-3-carboxamide]
